Assay results: PubChem BioAssay (NCI)
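GI50 is the concentration that inhibits growth by half. Definition used: TGI = concentration required for complete inhibition of growth.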

Columns and labels:
Experiment in all cases: NCI-60 cell line screen, 384-well format
[1] = test system: MCF7 breast
[2] = test system: MALME-3M melanoma
[3] = test system: HT29 colon
[4] = test system: HS 578T breast
[5] = test system: NCI-H226 lung
[6] = test system: U251 glioblastoma
[7] = test system: 786-0 renal
[8] = test system: DU-145 prostate
[9] = test system: SK-MEL-5 melanoma
[10] = test system: EKVX NSCLC
[11] = test system: CCRF-CEM leukemia
[12] = test system: SK-MEL-28 melanoma
[13] = test system: HL-60(TB) leukemia
[14] = test system: UACC-257 melanoma
[15] = test system: KM12 colon
[16] = test system: M14 melanoma
[17] = test system: SF-295 CNS
[18] = test system: TK-10 renal
[19] = test system: SR leukemia
[20] = test system: SK-OV-3 ovarian
[21] = test system: MDA-MB-435 melanoma
[22] = test system: HCT-116 colon
[23] = test system: SNB-19 CNS
[24] = test system: A498 renal
[25] = test system: SW-620 colon
[26] = test system: MDA-MB-468 breast
[27] = test system: BT-549 breast
[28] = test system: OVCAR-4 ovarian
[29] = test system: OVCAR-3 ovarian
[30] = test system: SF-268 CNS
[31] = test system: SNB-75 CNS
[32] = test system: ACHN renal
[33] = test system: PC-3 prostate
[34] = test system: OVCAR-8 ovarian
[35] = test system: MDA-MB-231 breast
[36] = test system: HCC-2998 colon
[37] = test system: IGROV1 ovarian
[38] = test system: COLO 205 colon
[39] = test system: NCI/ADR-RES ovarian
[40] = test system: UO-31 renal
[41] = test system: HOP-92 NSCLC
[42] = test system: SF-539 CNS
[43] = test system: UACC-62 melanoma
[44] = test system: NCI-H522 lung
[45] = test system: SN12C renal
[46] = test system: HOP-62 NSCLC
[47] = test system: A549 NSCLC
[48] = test system: CAKI-1 renal
[49] = test system: RPMI-8226 leukemia
[50] = test system: HCT-15 colon
[51] = test system: MOLT-4 leukemia
[52] = test system: OVCAR-5 ovarian
[53] = test system: RXF 393 renal
[54] = test system: T-47D breast
[55] = test system: NCI-H23 lung
[56] = test system: NCI-H460 NSCLC
[57] = test system: LOX IMVI melanoma
[58] = test system: NCI-H322M lung

## CNC(=O)c1ccc(N2C(=S)N(c3cnc(C#N)c(C(F)(F)F)c3)C(=O)C23CCC3)cc1F
[1]
  GI50: > 100 µM
  TGI: > 100 µM
[2]
  GI50: > 100 µM
  TGI: > 100 µM
[3]
  GI50: > 100 µM
  TGI: > 100 µM
[4]
  GI50: > 100 µM
  TGI: > 100 µM
[5]
  GI50: > 95.1 µM
  TGI: > 100 µM
[6]
  GI50: > 100 µM
  TGI: > 100 µM
[7]
  GI50: > 100 µM
  TGI: > 100 µM
[8]
  GI50: > 100 µM
  TGI: > 100 µM
[9]
  GI50: > 100 µM
  TGI: > 100 µM
[10]
  GI50: > 100 µM
  TGI: > 100 µM
[11]
  GI50: > 100 µM
  TGI: > 100 µM
[12]
  GI50: > 100 µM
  TGI: > 100 µM
[13]
  GI50: 55.6 µM
  TGI: > 100 µM
[14]
  GI50: > 100 µM
  TGI: > 100 µM
[15]
  GI50: > 100 µM
  TGI: > 100 µM
[16]
  GI50: > 100 µM
  TGI: > 100 µM
[17]
  GI50: > 100 µM
  TGI: > 100 µM
[18]
  GI50: > 100 µM
  TGI: > 100 µM
[19]
  GI50: 29 µM
  TGI: 100 µM
[20]
  GI50: > 100 µM
  TGI: > 100 µM
[21]
  GI50: > 100 µM
  TGI: > 100 µM
[22]
  GI50: > 100 µM
  TGI: > 100 µM
[23]
  GI50: > 100 µM
  TGI: > 100 µM
[24]
  GI50: > 100 µM
  TGI: > 100 µM
[25]
  GI50: > 100 µM
  TGI: > 100 µM
[26]
  GI50: 55.5 µM
  TGI: > 100 µM
[27]
  GI50: > 100 µM
  TGI: > 100 µM
[28]
  GI50: 90.4 µM
  TGI: > 100 µM
[29]
  GI50: > 100 µM
  TGI: > 100 µM
[30]
  GI50: > 100 µM
  TGI: > 100 µM
[31]
  GI50: > 100 µM
  TGI: > 100 µM
[32]
  GI50: > 100 µM
  TGI: > 100 µM
[33]
  GI50: > 100 µM
  TGI: > 100 µM
[34]
  GI50: > 100 µM
  TGI: > 100 µM
[35]
  GI50: > 100 µM
  TGI: > 100 µM
[36]
  GI50: > 100 µM
  TGI: > 100 µM
[37]
  GI50: > 100 µM
  TGI: > 100 µM
[38]
  GI50: > 100 µM
  TGI: > 100 µM
[39]
  GI50: > 100 µM
  TGI: > 100 µM
[40]
  GI50: > 100 µM
  TGI: > 100 µM
[41]
  GI50: > 100 µM
  TGI: > 100 µM
[42]
  GI50: > 100 µM
  TGI: > 100 µM
[43]
  GI50: > 100 µM
  TGI: > 100 µM
[44]
  GI50: > 100 µM
  TGI: > 100 µM
[45]
  GI50: > 100 µM
  TGI: > 100 µM
[46]
  GI50: > 100 µM
  TGI: > 100 µM
[47]
  GI50: > 100 µM
  TGI: > 100 µM
[48]
  GI50: > 100 µM
  TGI: > 100 µM
[49]
  GI50: 69.1 µM
  TGI: > 100 µM
[50]
  GI50: > 100 µM
  TGI: > 100 µM
[51]
  GI50: 36.4 µM
  TGI: > 100 µM
[52]
  GI50: > 100 µM
  TGI: > 100 µM
[53]
  GI50: > 62.4 µM
  TGI: > 100 µM
[54]
  GI50: > 72.4 µM
  TGI: > 100 µM
[55]
  GI50: > 100 µM
  TGI: > 100 µM
[56]
  GI50: > 100 µM
  TGI: > 100 µM
[57]
  GI50: > 100 µM
  TGI: > 100 µM
[58]
  GI50: > 100 µM
  TGI: > 100 µM
